Assay results: patent US4789587A, “(1,3-dioxolan-2-yl-methyl)-1H-imidazoles as bactericidal and/or fungicidal agents” (IRE-Celltarg, S.A., priority 1986, dated 1988)
Values after ≈ are worked out from the molar mass of the structure shown. Where two headings read alike, the source gives them in different places.

Key:
Type in all cases: cell-based
[1] = system: Candida tropicalis ATCC 13803; assay: minimum inhibiting concentration, microtitration in liquid medium, C. tropicalis; conditions: ATCC13803, RPMI + 20% foetal calf serum, overnight, inoculum 10^5 to 10^6 organisms/ml
Protocol: (§1) The activity of the new derivatives according to the invention was tested in vitro by determining the minimum inhibiting concentration (MIC) of the molecules and their fungicidal (minimum fungicidal concentration MFC) or bactericidal (minimum bactericidal concentration MBC) activity. MFC and MBC are defined as the minimum dose which kills 99.9% of the organisms contained in the inoculum. Two species of yeasts pathogenic to man were used: Candida albicans ATCCe 10231 and Candida tropicalis ATCC 13803. Two species of bacteria were included in the screening: Staphylococcus aureus ATCC 25923 and Salmonella typhimurium LT2, strain Demerec. The MIC is determined after culturing overnight in a liquid medium, by the microtitration method in dishes containing 96 wells over a concentration range of 100 μM to 0.0008 μM. The inoculum contains 10^5 to 10^6 organisms/ml. The culture media consist on the one hand of RPMI to which 20% of foetal calf serum (inactivated for one hour at 56°) has been added in order to determine the fungistatic activity and Mueller-Hinton agar in order to determine the bacteriostatic power of the newly synthesized molecules on the other. The MFC and MBC for each of these molecules are obtained by subculturing a sample containing 10^3 organisms from each well giving negative results for the growth of the organisms, in a solid medium consisting of YM agar (yeasts) or Mueller-Hinton agar (bacteria) overnight at 37°.

[2] = system: Candida albicans ATCCe 10231; assay: minimum inhibiting concentration, microtitration in liquid medium, C. albicans; conditions: ATCCE10231, RPMI + 20% foetal calf serum, overnight, inoculum 10^5 to 10^6 organisms/ml
Protocol: as §1

[3] = system: Staphylococcus aureus ATCC 25923; assay: minimum inhibiting concentration, microtitration in liquid medium, S. aureus
Protocol: as §1

[4] = system: Leydig tumor cells from mice (I-10, ATCC No. CCL83); assay: in vitro synthesis of steroids: 20α-hydroxy-4-pregnen-3-one secretion by Leydig tumor cells induced by cAMP; conditions: for 20α-OH-4-pregnen-3-one (1): dibutyryl-cAMP 1×10^-4 M, 3 hours incubation with compound, control 1744, basal 785; for activity at 0.94 µM: Mus musculus, Leydig, read-out: 20α-OH-4-pregnen-3-one (2) % enzyme activity relative to control
Description: (§2) Ketoconazole and its derivatives reduce the plasma levels of testosterone by inhibiting certain enzymes involved in its biogenesis. Progesterone is a key intermediate in the biogenesis of steroid hormones as it leads especially to estradiol in the ovary and to testosterone in the testicles. The inhibiting power of ketoconazole and its derivatives on the enzyme chain for the biogenesis of steroid hormones may be assessed by measuring the conversion of cholesterol into progesterone. A method of determination which enables this property to be quantified is described below.
(§3) Leydig tumor cells from mice (I-10, ATCC No. CCL83) were grown in a HAM's F10 medium to which 15% of horse serum and 2.5% of foetal calf serum were added. These cells have the property of secreting progesterone and a product of reduction of the latter which is no longer metabolized, 20α-hydroxy-4-pregnen-3-one. This secretion of steroids is induced by the addition of cAMP in the form of its dibutyryl ester (N^6, O^2' -dibutyryladenosine 3', 5'-cyclic monophosphate sodium salt monohydrate (Sigma)). The cells are subcultured in 25 cm^2 falcon dishes and maintained under CO2 (10%). When these become confluent (±1 mg/ml proteins) the medium is replaced with fresh medium containing dibutyryl-cAMP (1×10^-4 M). After incubating for 1 hour with the cAMP, the ketoconazole or its derivatives are added (9.4×10^-7 M) to the culture medium. After incubating for a further period of 3 hours, the supernatants are collected and will be used for the analysis of steroids by HPLC. The cells are rinsed with PBS (phosphate buffered saline: NaCl 0.15M, KCl 2.7 mM, Na2 HPO4 -KH2 PO4 3 mM pH 7.4) and after treating with DOC (deoxycholic acid), the determination of proteins is carried out by the Lowry method.
(§4) For the determination of steroids, 2 ml of the culture medium are brought into contact with 5 ml of ether. The tubes are vortexed for 2 minutes. After freezing the aqueous phases in an isopropanol/solid carbon dioxide bath, the ether phase is collected and the ether is evaporated off under a stream of nitrogen at 30° C. The dry extract is then diluted in 150 μl of water and 150 μl of acetonitrile and centrifuged at 13,000 rpm for 10 minutes. 30 μl of the supernatant are injected into HPLC on a 4 mm diameter, 30 cm long μBondapack C18 column (WATERS). The mobile phase consists of 38% of water, 31% acetonitrile and 31% methanol. The flowrate is 2 ml/min and readings are taken at 245 nm.

[5] = system: Staphylococcus aureus ATCC 25923; assay: minimum bactericidal concentration, subculture on Mueller-Hinton agar, S. aureus
Protocol: as §1

[6] = system: Candida albicans ATCCe 10231; assay: minimum fungicidal concentration, subculture on YM agar, C. albicans
Protocol: as §1

[7] = system: Salmonella typhimurium LT2, strain Demerec; assay: minimum bactericidal concentration, subculture on Mueller-Hinton agar, S. typhimurium; conditions: Salmonella enterica, minimum dose which kills 99.9% of the organisms (MBC), overnight at 37°, read-out: MFC S. typhimurium
Protocol: as §1, with “The MFC and MBC for each of these molecules are obtained by subculturing a sample containing 10^3 organisms from each well giving negative results for the growth of the organisms, in a solid medium consisting of YM agar (yeasts) or Mueller-Hinton agar (bacteria) overnight at 37°.” left out

[8] = system: Candida tropicalis ATCC 13803; assay: minimum fungicidal concentration, subculture on YM agar, C. tropicalis
Protocol: as §1

[9] = system: Salmonella typhimurium LT2, strain Demerec; assay: minimum inhibiting concentration, microtitration in liquid medium, S. typhimurium; conditions: Salmonella enterica, read-out: MIC S. typhimurium
Protocol: as §1

[10] = system: Leydig tumor cells from mice (I-10, ATCC No. CCL83); assay: in vitro synthesis of steroids: progesterone secretion by Leydig tumor cells induced by cAMP; conditions: for Progesterone (1): dibutyryl-cAMP 1×10^-4 M, 3 hours incubation with compound, control 3546, basal 554; for progesterone secretion, % of cAMP-induced control at 0.94 µM: Mus musculus, Leydig, read-out: Progesterone (2) % enzyme activity relative to control
Description: as §2, §3, §4

[11] = ATCC25923, Mueller-Hinton, overnight, inoculum 10^5 to 10^6 organisms/ml, read-out: MIC S. aureus
[12] = 9.4×10^-7 M, relative to cells induced by cAMP in the absence of inhibitor
[13] = ATCC25923, minimum dose which kills 99.9% of the organisms (MBC), overnight at 37°, read-out: MFC S. aureus
[14] = ATCCE10231, minimum dose which kills 99.9% of the organisms, YM agar, overnight at 37°, read-out: MFC C. albicans
[15] = ATCC13803, minimum dose which kills 99.9% of the organisms, YM agar, overnight at 37°, read-out: MFC C. tropicalis
[16] = ATCC25923, read-out: MIC S. aureus

Compound | MIC [1] [µM] | MIC [2] [µM] | MIC [3, 11] [µM] | 20α-OH-4-pregnen-3-one (1) ([4]; 9.4×10^-7 M) | activity at 0.94 µM [4, 12] [%] | MFC [6, 14] [µM] | MFC [8, 15] [µM] | Progesterone (1) ([10]; 9.4×10^-7 M) | progesterone secretion, % of cAMP-induced control at 0.94 µM [10, 12] [%] | further results
O=C(O)CCC(=O)NCC(=O)N1CCN(c2ccc(OCC3COC(Cn4ccnc4)(c4ccc(Cl)cc4Cl)O3)cc2)CC1 (stereo not drawn) [No. 5, Cis-4-[A]-1-(N-succinylglycyl)piperazine] | 25 | 25 | 50 (≈ 32.3 µg/mL) |  |  |  |  |  |  | 
CC(=O)N1CCN(c2ccc(OCC3COC(Cn4ccnc4)(c4ccc(Cl)cc4Cl)O3)cc2)CC1 (stereo not shown) [Ketoconazole, reference compound] | 0.049 | 0.053 | 20.4 (≈ 10.9 µg/mL) | 1296 ng of steroids/mg of cell prot | 74 | 0.22 (≈ 0.117 µg/mL) | 4.88 (≈ 2.59 µg/mL) | 1878 ng of steroids/mg of cell prot | 53 | MBC [5, 13]: 50 µM (≈ 26.6 µg/mL); MBC [7]: > 100 µM; MIC ([9]; Mueller-Hinton, overnight, inoculum 10^5 to 10^6 organisms/ml): > 100 µM
NCC(=O)N1CCN(c2ccc(OCC3COC(Cn4ccnc4)(c4ccc(Cl)cc4Cl)O3)cc2)CC1 (stereo not drawn) [No. 1, Cis-4-[A]-1-(glycyl)piperazine] | 0.119 | 0.16 | 12 (≈ 6.55 µg/mL) |  |  | 2.38 (≈ 1.3 µg/mL) | 1.3 (≈ 0.71 µg/mL) |  |  | MBC [5, 13]: 25 µM (≈ 13.7 µg/mL)
CC(N)C(=O)N1CCN(c2ccc(OCC3COC(Cn4ccnc4)(c4ccc(Cl)cc4Cl)O3)cc2)CC1 (stereo not drawn) [No. 2, Cis-4-[A]-1-(alanyl)piperazine] | 0.006 | 0.006 |  | 1299 ng of steroids/mg of cell prot | 74 |  |  | 1939 ng of steroids/mg of cell prot | 55 | 
CC(=O)NCC(=O)N1CCN(c2ccc(OCC3COC(Cn4ccnc4)(c4ccc(Cl)cc4Cl)O3)cc2)CC1 (stereo not drawn) [No. 6, Cis-4-[A]-1-(N-acetylglycyl)piperazine] | 0.78 | 3.13 |  |  |  | 6.25 (≈ 3.68 µg/mL) | 12.5 (≈ 7.36 µg/mL) |  |  | 
CC(C)CC(N)C(=O)N1CCN(c2ccc(OCC3COC(Cn4ccnc4)(c4ccc(Cl)cc4Cl)O3)cc2)CC1 (stereo not drawn) [No. 9, Cis-4-[A]-1-(leucyl)piperazine] |  |  |  | 1725 ng of steroids/mg of cell prot | 99 |  |  | 2231 ng of steroids/mg of cell prot | 63 | 
NC(Cc1ccccc1)C(=O)N1CCN(c2ccc(OCC3COC(Cn4ccnc4)(c4ccc(Cl)cc4Cl)O3)cc2)CC1 (stereo not drawn) [No. 10, Cis-4-[A]-1-(phenylalanyl)piperazine] |  |  |  | 605 ng of steroids/mg of cell prot | 35 |  |  | 323 ng of steroids/mg of cell prot | 9 | 
NCC(=O)NCC(=O)N1CCN(c2ccc(OCC3COC(Cn4ccnc4)(c4ccc(Cl)cc4Cl)O3)cc2)CC1 (stereo not drawn) [No. 3, Cis-4-[A]-1-(N-glycylglycyl)piperazine] | 0.48 | 0.48 |  |  |  |  |  |  |  | 
Clc1ccc(COC(Cn2ccnc2)c2ccc(Cl)cc2Cl)c(Cl)c1 (stereo not shown) [Miconazole, reference compound] |  |  |  |  |  |  |  |  |  | MIC [3, 16]: 1.56 µM (≈ 0.649 µg/mL)
CCCCCCCCC=CCCCCCCCC(=O)NCC(=O)N1CCN(c2ccc(OCC3COC(Cn4ccnc4)(c4ccc(Cl)cc4Cl)O3)cc2)CC1 (stereo not drawn) [No. 8, Cis-4-[A]-1-(N-oleylglycyl)piperazine] | 53.1 | 31.2 |  |  |  | 62.5 (≈ 50.7 µg/mL) | > 100 |  |  | 
Clc1ccc(C2(Cn3ccnc3)OCC(COc3ccc(N4CCNCC4)cc3)O2)c(Cl)c1 (stereo not drawn) [Cis-1-[A]-piperazine, reference compound] |  |  |  | 1461 ng of steroids/mg of cell prot |  |  |  | 2783 ng of steroids/mg of cell prot |  | activity at 0.94 µM [4]: 84%; MBC ([5]; ATCC25923, read-out: MFC S. aureus, minimum dose which kills 99.9% of the organisms (MBC), overnight at 37°): 25 µM (≈ 12.2 µg/mL); MIC [3, 16]: 3.65 µM (≈ 1.79 µg/mL); MFC ([6]; ATCCE10231, read-out: MFC C. albicans): 2.35 µM (≈ 1.15 µg/mL); MFC ([8]; ATCC13803, read-out: MFC C. tropicalis): 1.58 µM (≈ 0.773 µg/mL); MIC [9]: > 100 µM; progesterone secretion, % of cAMP-induced control at 0.94 µM [10]: 78%
O=C(O)CCC(=O)N1CCN(c2ccc(OCC3COC(Cn4ccnc4)(c4ccc(Cl)cc4Cl)O3)cc2)CC1 (stereo not drawn) [No. 4, Cis-4-[A]-1(succinyl)piperazine] | 15.2 | 19.8 | 50.8 (≈ 29.9 µg/mL) |  |  | 25 (≈ 14.7 µg/mL) | 50 (≈ 29.5 µg/mL) |  |  | MBC [5, 13]: > 100 µM
